Measurements as given in US20240358829A1, “Lymphocyte Population and Methods for Producing Same” (AVM Biotechnology, LLC, priority 2021, published 2024).
Several values for one entry are separate records, joined by “and”; a condition that tells them apart may be missing. Equal values may be shown once.

Tested on: CD56+γδTCR+iTCR+ cells
Experiment: AVM0703 R/R NHL clinical trial, whole blood flow cytometry
Type: in vivo, human
Description: FIG. 15. 101-001 size (FSC) and complexity (SSC) scattergram of AVM_NKT cells. […] Blood was stained with panel antibodies based for 15 minutes in the dark at Room Temperature. RBC lysis was performed by addition of 1 mL of 1×BD FACS Lysing Solution (BD Bioscience), diluted with MilliQ water, for 10 minutes in the dark at Room Temperature. Samples were washed with 2 mL 1×DPBS CMF (Gibco) and resuspended in 300 μL of 1×DPBS CMF before 5 μL of 7AAD (Biolegend) was added to each sample for live/dead cell determination and incubated for 5 minutes in the dark at Room Temperature. 250 μL of sample were taken up for acquisition on Macsquant 16 Flow Cytometer (Miltenyi, Serial #40150). Live white blood cells were gated for CD56+ cells co-expressing gamma delta TCR and the invariant TCR and labelled red in the forward versus side scattergram. Red-labelled cells fall within the forward versus side scattergrams where large granular cells such as neutrophils and large granular lymphocytes are known to fall.
For characterisation of the induced/mobilized population of NKT-like cells (AVM-NKT) in humans, whole blood from human subjects was drawn in K2 EDTA Vacutainer tube (367862, BD Biosciences, NJ) and shipped to AVM Biotechnology at room temperature. 100 μl of whole blood was stained with the following antibodies: CD45 AF700 (2D1), CD16 APC (3G8), INKT PECy7 (6B11), CD8 PE (SK1), CD14 FITC (M5E2), CD56 BV650 (5.1H11), γδTCR BV510 (B1), CD19 BV421 (HIB19), NKp44 APC (P44-8) (all from Biolegend, San Diego, CA) and CD3 APCVio770 (BW264/56), (Miltenyi Biotec, San Jose, CA), 7-AAD, (Biolegend, San Diego CA) was included to distinguish the live and dead cells.

[1] = patient 108-001, 1st 9 mg/kg infusion, 1 hour
[2] = patient 108-001, 1st 9 mg/kg infusion, Day 3
[3] = patient 108-001, 1st 9 mg/kg infusion, Day 14
[4] = patient 108-001, 2nd 9 mg/kg infusion, 1 hour
[5] = patient 108-001, 2nd 9 mg/kg infusion, Day 3
[6] = patient 108-001, 2nd 9 mg/kg infusion, Day 14
[7] = patient 108-002, 18 mg/kg, 1 hour post-infusion
[8] = patient 108-002, 18 mg/kg, Day 3
[9] = patient 108-002, 18 mg/kg, Day 14
[10] = patient 108-003, 12 mg/kg, 1 hour post-infusion
[11] = patient 108-003, 12 mg/kg, Day 3
[12] = patient 108-003, 12 mg/kg, Day 14

C[C@@H]1C[C@H]2[C@@H]3CCC4=CC(=O)C=C[C@]4(C)[C@@]3(F)[C@@H](O)C[C@]2(C)[C@@]1(O)C(=O)COP(=O)(O)O [AVM0703, dexamethasone sodium phosphate]
CD45 (as % of CD56+ γδTCR+ iTCR+ cells) [1]: 96%
CD56+ γδTCR+ iTCR+ % of total WBCs [1]: 0.72%
CD56+ γδTCR+ iTCR+ cells/uL [1]: 112 cells/uL
CD3 (as % of CD56+ γδTCR+ iTCR+ cells) [2]: 24%
CD8hi (as % of CD56+ γδTCR+ iTCR+ cells) [2]: 2%
CD8med (as % of CD56+ γδTCR+ iTCR+ cells) [2]: 16%
CD14+ (as % of CD56+ γδTCR+ iTCR+ cells) [2]: 50%
CD16 (as % of CD56+ γδTCR+ iTCR+ cells) [2]: 80%
CD19+ (as % of CD56+ γδTCR+ iTCR+ cells) [2]: 24%
CD45 (as % of CD56+ γδTCR+ iTCR+ cells) [2]: 98%
CD56+ γδTCR+ iTCR+ % of total WBCs [2]: 0.22%
CD56+ γδTCR+ iTCR+ cells/uL [2]: 36 cells/uL and 36.0 cells/uL
CD56+ γδTCR+ iTCR+ % of total WBCs [3]: 0.06%
CD56+ γδTCR+ iTCR+ cells/uL [3]: 3 cells/uL
CD3 (as % of CD56+ γδTCR+ iTCR+ cells) [4]: 23%
CD8hi (as % of CD56+ γδTCR+ iTCR+ cells) [4]: 2.2%
CD8med (as % of CD56+ γδTCR+ iTCR+ cells) [4]: 4.4%
CD14+ (as % of CD56+ γδTCR+ iTCR+ cells) [4]: 81%
CD16 (as % of CD56+ γδTCR+ iTCR+ cells) [4]: 89%
CD19+ (as % of CD56+ γδTCR+ iTCR+ cells) [4]: 26%
CD45 (as % of CD56+ γδTCR+ iTCR+ cells) [4]: 13%
CD56+ γδTCR+ iTCR+ % of total WBCs [4]: 0.84%
CD56+ γδTCR+ iTCR+ cells/uL [4]: 26 cells/uL
CD3 (as % of CD56+ γδTCR+ iTCR+ cells) [5]: 49%
CD8hi (as % of CD56+ γδTCR+ iTCR+ cells) [5]: 1%
CD8med (as % of CD56+ γδTCR+ iTCR+ cells) [5]: 55%
CD14+ (as % of CD56+ γδTCR+ iTCR+ cells) [5]: 35%
CD16 (as % of CD56+ γδTCR+ iTCR+ cells) [5]: 58%
CD19+ (as % of CD56+ γδTCR+ iTCR+ cells) [5]: 17%
CD45 (as % of CD56+ γδTCR+ iTCR+ cells) [5]: 11%
CD56+ γδTCR+ iTCR+ % of total WBCs [5]: 0.19%
CD56+ γδTCR+ iTCR+ cells/uL [5]: 10.2 cells/uL
CD3 (as % of CD56+ γδTCR+ iTCR+ cells) [6]: 22%
CD8hi (as % of CD56+ γδTCR+ iTCR+ cells) [6]: 4%
CD8med (as % of CD56+ γδTCR+ iTCR+ cells) [6]: 20%
CD14+ (as % of CD56+ γδTCR+ iTCR+ cells) [6]: 76%
CD16 (as % of CD56+ γδTCR+ iTCR+ cells) [6]: 82%
CD19+ (as % of CD56+ γδTCR+ iTCR+ cells) [6]: 28%
CD45 (as % of CD56+ γδTCR+ iTCR+ cells) [6]: 84%
CD56+ γδTCR+ iTCR+ % of total WBCs [6]: 0.43%
CD56+ γδTCR+ iTCR+ cells/uL [6]: 20 cells/uL
AVM_NKT CD56+γδTCR+iTCR+ cells in the blood (patient 108-001, after the third 9 mg/kg infusion): not evident in the blood
CD56+gdTCR+ inv TCR+ cells induced (patient 108-002, 18 mg/kg): YES
CD3 (as % of CD56+ γδTCR+ iTCR+ cells) [7]: 83.2%
CD8hi (as % of CD56+ γδTCR+ iTCR+ cells) [7]: 88%
CD8med (as % of CD56+ γδTCR+ iTCR+ cells) [7]: 12.3%
CD14+ (as % of CD56+ γδTCR+ iTCR+ cells) [7]: 79%
CD16 (as % of CD56+ γδTCR+ iTCR+ cells) [7]: 87%
CD19+ (as % of CD56+ γδTCR+ iTCR+ cells) [7]: 98%
CD45 (as % of CD56+ γδTCR+ iTCR+ cells) [7]: 100%
CD56+ γδTCR+ iTCR+ cells/uL [7]: 49.5 cells/uL
CD56+ γδTCR+ iTCR+ % of total WBCs [8]: 0.04%
CD56+ γδTCR+ iTCR+ cells/uL [8]: 2.3 cells/uL
CD3 (as % of CD56+ γδTCR+ iTCR+ cells) [9]: 72%
CD8hi (as % of CD56+ γδTCR+ iTCR+ cells) [9]: 73%
CD8med (as % of CD56+ γδTCR+ iTCR+ cells) [9]: 16.5%
CD14+ (as % of CD56+ γδTCR+ iTCR+ cells) [9]: 80%
CD16 (as % of CD56+ γδTCR+ iTCR+ cells) [9]: 41.2%
CD19+ (as % of CD56+ γδTCR+ iTCR+ cells) [9]: 80%
CD45 (as % of CD56+ γδTCR+ iTCR+ cells) [9]: 84%
CD56+ γδTCR+ iTCR+ % of total WBCs [9]: 0.25%
CD56+ γδTCR+ iTCR+ cells/uL [9]: 9.7 cells/uL
CD56+gdTCR+ inv TCR+ cells induced (patient 108-003, 12 mg/kg): YES
CD3 (as % of CD56+ γδTCR+ iTCR+ cells) [10]: 14%
CD8hi (as % of CD56+ γδTCR+ iTCR+ cells) [10]: 1.7%
CD8med (as % of CD56+ γδTCR+ iTCR+ cells) [10]: 9%
CD14+ (as % of CD56+ γδTCR+ iTCR+ cells) [10]: 43%
CD16 (as % of CD56+ γδTCR+ iTCR+ cells) [10]: 85%
CD19+ (as % of CD56+ γδTCR+ iTCR+ cells) [10]: 40%
CD45 (as % of CD56+ γδTCR+ iTCR+ cells) [10]: 95%
CD56+ γδTCR+ iTCR+ % of total WBCs [10]: 0.4%
CD56+ γδTCR+ iTCR+ cells/uL [10]: 31.8 cells/uL
CD3 (as % of CD56+ γδTCR+ iTCR+ cells) [11]: 80%
CD8hi (as % of CD56+ γδTCR+ iTCR+ cells) [11]: 12.6%
CD8med (as % of CD56+ γδTCR+ iTCR+ cells) [11]: 45%
CD14+ (as % of CD56+ γδTCR+ iTCR+ cells) [11]: 68%
CD16 (as % of CD56+ γδTCR+ iTCR+ cells) [11]: 75%
CD19+ (as % of CD56+ γδTCR+ iTCR+ cells) [11]: 11.5%
CD45 (as % of CD56+ γδTCR+ iTCR+ cells) [11]: 67%
CD56+ γδTCR+ iTCR+ % of total WBCs [11]: 0.6%
CD56+ γδTCR+ iTCR+ cells/uL [11]: 58.4 cells/uL
CD3 (as % of CD56+ γδTCR+ iTCR+ cells) [12]: 90%
CD8hi (as % of CD56+ γδTCR+ iTCR+ cells) [12]: 8%
CD8med (as % of CD56+ γδTCR+ iTCR+ cells) [12]: 84%
CD14+ (as % of CD56+ γδTCR+ iTCR+ cells) [12]: 87%
CD16 (as % of CD56+ γδTCR+ iTCR+ cells) [12]: 89%
CD19+ (as % of CD56+ γδTCR+ iTCR+ cells) [12]: 12.4%
CD45 (as % of CD56+ γδTCR+ iTCR+ cells) [12]: 94%
CD56+ γδTCR+ iTCR+ % of total WBCs [12]: 0.83%
CD56+ γδTCR+ iTCR+ cells/uL [12]: 94 cells/uL
CD56+γδTCR+invTCR+ cells in blood (patient 108-004, 12 mg/kg, one hour, 3 days or 14 days after infusion (pre-infusion 0.09%, 4.6 cells/uL)): no increase
